In patent US20060135796A1, “Antiangiogenic agents” (priority 2000, published 2006):
Where two headings read alike, the source gives them in different places.

Key:
HUVEC cells = assay: HUVEC in vitro cellular proliferation inhibition (BrdU); type: cell-based, human; details: for antiproliferative activity in HUVEC cells, in words: inhibition of HUVEC / endothelial cell proliferation in vitro
Experimental: HUVAC In Vitro Cellular Proliferation Inhibition
HUVAC Cells and Culture Conditions
HUVAC Cells were Grown in EGM (Clonetics)
HUVEC cells were plated at 5000 cells/ml in 96-well plates. After allowing the cells to attach overnight, the cells were washed with PBS and incubated in the absence of growth factor for 24 h (EBM, 2% FCS, Clonetics). Cells were treated with increasing concentrations of drug in EBM containing 2% FCS and 10 ng.ml bFGF for 48 h at 37° C. Drug preparation, volumes added and BrdU proliferation assay were performed as indicated above.
(§1) In order to assess the biological activity of modifications at position 16, the anti-proliferative activity of these analogs was evaluated on human umbilical vein endothelial cells (HUVEC) and breast carcinoma cell line, MDA-MB-231 as models for the anti-angiogenic and anti-tumor activity, respectively.

[1] = test system: MDA-MB-231 human breast carcinoma cells; assay: MDA-MB-231 in vitro cellular proliferation inhibition (BrdU); type: cell-based; details: for fold less activity than 2-methoxyestradiol: MDA-MB-231 tumor cell line, compared to 2-methoxyestradiol; for antiproliferative activity in MDA-MB-231 cells, in words: breast tumor MDA-MB-231 cells
Experimental: MDA-MB-231 In Vitro Cellular Proliferation Inhibition
MDA-MB-231 Cells and Culture Conditions
MDA-MB-231 human breast carcinoma cells were grown in DMEM containing 10% FCS (Hyclone Laboratories, Logan Utah) and supplemented with 2 mM L-Glutamine, 100 units/ml penicillin, 100 μg/ml streptomycin (Irvine Scientific, Santa Anna, Calif.).
MDA-MB-231 cells were plated at 5000 cells/ml in 96 well plates. After allowing the cells to attach overnight, the appropriate fresh media were applied containing differing concentrations of 2-ME2 or derivatives thereof, as described below. Drug was dissolved in DMSO (Sigma, St. Louis, Mo.) and added to the wells in a volume of 200 μl. Cells were incubated for two days at 37° C.; at 32 h BrdU was added. BrdU cell proliferation assay (a nucleotide analogue with a fluorescein tag that is incorporated into DNA) was performed as described by the manufacturer (Roche). Each condition was prepared in triplicate and the experiments were carried out a minimum of two times. Results are presented and means ±SE.
as §1

[2] = test system: estrogen dependant MCF-7 cells; assay: MCF7 proliferation index (estrogenic activity); type: cell-based; details: measure of estrogenic activity
From the text: All of these analogs have the capacity to from a hydrogen bond with the hydroxy group at position 3 and this may be the reason for their relatively low estrogenic character compared to estradiol. Both the 2-methylhydroxy and 2-formyl derivatives had good antiproliferative activity (IC50<10 microM) in HUVEC cells, whereas the 2-acetyl had poor activity in the same assay.

[3] = test system: chick embryo chorioallantoic membrane; assay: chick embryo chorioallantoic membrane (CAM) assay; type: in vivo; set-up: dose or concentration left out as unconfirmed; details: methylcellulose disc on CAM, after 48 hours
Experimental: Anti-proliferative activity is evaluated in situ by testing the ability of an improved estradiol derivative to inhibit the proliferation of new blood vessel cells (angiogenesis). A suitable assay is the chick embryo chorioallantoic membrane (CAM) assay described by Crum et al. Science 230:1375 (1985). See also, U.S. Pat. No. 5,001,116, hereby incorporated by reference, which describes the CAM assay. Briefly, fertilized chick embryos are removed from their shell on day 3 or 4, and a methylcellulose disc containing the drug is implanted on the chorioallantoic membrane. The embryos are examined 48 hours later and, if a clear avascular zone appears around the methylcellulose disc, the diameter of that zone. is measured.

[4] = Table 2, 2-methoxyestradiol modified at position 16, 48 h, bFGF, read-out: HUVEC IC50
[5] = Table 2, 2-methoxyestradiol modified at position 16, two days, read-out: MDA-MB-231 IC50
[6] = Table 1, 2-modified estradiol derivatives, read-out: HUVEC (IC50 μM)
[7] = text statement b78, read-out: antiproliferative activity IC50 in HUVEC cells
[8] = Table 1, 2-modified estradiol derivatives, read-out: MDA-MB-231 (IC50 μM)

IC50 [1, 5]	Compound	IC50 (HUVEC cells; [4])	MCF7 Proliferation Index [2]	further results
> 50 µM	CCC[C@@H]1C[C@H]2[C@@H]3CCc4cc(O)c(OC)cc4[C@H]3CC[C@]2(C)[C@H]1O [n-propyl (—CH2CH2CH3), 16α-n-propyl-2-methoxyestradiol]	6 µM		antiproliferative activity in HUVEC cells, in words (HUVEC cells): good activity
	CC12CCC3c4cc(C=O)c(O)cc4CCC3C1CCC2O (stereo not drawn) [Example 2-formyl-E2]		5.4	IC50 (HUVEC cells; [6]): 8 µM; IC50 (HUVEC cells; [7]): < 10 µM; IC50 [1, 8]: > 25 µM; antiproliferative activity in MDA-MB-231 cells, in words [1]: inactive
0.9 µM	COc1cc2c(cc1O)CC[C@@H]1[C@@H]2CC[C@]2(C)[C@@H](O)CC[C@@H]12 [Example 2ME2, 2-Methoxyestradiol, reference compound]		4.4	inhibition of cell mitosis and growth of new blood vessels [3]: inhibit cell mitosis and the growth of new blood vessels; IC50 [1, 8]: 0.9 µM
	C[C@]12CC[C@@H]3c4cc(CO)c(O)cc4CC[C@H]3[C@@H]1CC[C@@H]2O [2-methyl hydroxy-E2]		7.4	IC50 (HUVEC cells; [6]): 10 µM; IC50 (HUVEC cells; [7]): < 10 µM; IC50 [1, 8]: > 25 µM; antiproliferative activity in MDA-MB-231 cells, in words [1]: inactive
36 µM	CCC[C@H]1C[C@H]2[C@@H]3CCc4cc(O)c(OC)cc4[C@H]3CC[C@]2(C)[C@H]1O [n-propyl, 16β-n-propyl-2-methoxyestradiol]	9 µM		
3 µM	CCC1C[C@H]2[C@@H]3CCc4cc(O)c(OC)cc4[C@H]3CC[C@]2(C)[C@H]1O (mixture of isomers) [ethyl (—CH2CH3), Racemic 16-ethyl-2-methoxyestradiol]	2 µM		antiproliferative activity in HUVEC cells, in words (HUVEC cells): about equipotent to 2-methoxyestradiol; fold less activity than 2-methoxyestradiol [1]: ~3 fold
	CC(=O)c1cc2c(cc1O)CC[C@@H]1[C@@H]2CC[C@]2(C)[C@@H](O)CC[C@@H]12 [Example 2-acetyl-E2]		4.4	IC50 (HUVEC cells; [6]): 18 µM; antiproliferative activity in HUVEC cells, in words (HUVEC cells): poor activity; IC50 [1, 8]: 9 µM; antiproliferative activity in MDA-MB-231 cells, in words [1]: good activity
	C[C@]12CC[C@@H]3c4ccc(O)cc4CC[C@H]3[C@@H]1CC[C@@H]2O [Example E2, estradiol, reference compound]		13.1	
< 0.5 µM	COc1cc2c(cc1O)CC[C@@H]1[C@@H]2CC[C@]2(C)[C@@H](O)[C@H](C)C[C@@H]12 [methyl (—CH3), 16α-methyl-2methoxyestradiol]	< 0.5 µM		antiproliferative activity in HUVEC cells, in words (HUVEC cells): greater activity than 2-methoxyestradiol; antiproliferative activity in MDA-MB-231 cells, in words [1]: better activity than 2-methoxyestradiol
40 µM	16β-isobutyl-2-methoxyestradiol	7.5 µM		fold difference between tumor cell and endothelial cell antiproliferative activity (selectivity) ([1]; MDA-MB-231 versus HUVEC): 5 fold

Compound	IC50 [1, 5]	IC50 (HUVEC cells; [4])	MCF7 Proliferation Index [2]	further results
CCCC[C@H]1C[C@H]2[C@@H]3CCc4cc(O)c(OC)cc4[C@H]3CC[C@]2(C)[C@H]1O [n-butyl, 16β-n-butyl-2-methoxyestradiol]	39 µM	9 µM		
COc1cc2c(cc1O)CC[C@@H]1[C@@H]2CC[C@]2(C)[C@@H](O)[C@@H](C)C[C@@H]12 [methyl, 16β-methyl-2methoxyestradiol]	5 µM	1.3 µM		fold less activity than 2-methoxyestradiol [1]: about 5 fold
COc1cc2c(cc1O)CC[C@@H]1[C@@H]2CC[C@]2(C)[C@@H](O)[C@@H](CO)C[C@@H]12 [methanol (—CH2OH), 16β-methanol-2-methoxyestradiol]	22 µM	15 µM		
COc1cc2c(cc1O)CC[C@@H]1[C@@H]2CC[C@]2(C)[C@@H](O)[C@@H](CN(C)C)C[C@@H]12 [16β-methyl(dimethylamine)-2-methoxyestradiol]	22 µM	9 µM		
